Read-outs that look alike come from different tables or passages of the source.
Assays:
tyrosinase [1] = target: T1, tyrosinase (Agaricus bisporus, UniProt C7FF04); experiment: Enzyme kinetics (Lineweaver-Burk and Dixon plots); assay type: biochemical; settings: Lineweaver-Burk plot
Method: Enzyme kinetics are used to confirm the binding positions between an enzyme and inhibitor [7]. This study confirmed the effect of the substrate concentration on tyrosinase activity using four different concentrations. The initial velocity (vi) was calculated at steady-state. A Lineweaver–Burk plot was represented by 1/v versus 1/substrate in the presence of inhibitor according to enzyme kinetics theory. Their regression lines intersected the y-axis at the same point and the x-axis at different points.
Target sequence in this assay (C7FF04 2-392): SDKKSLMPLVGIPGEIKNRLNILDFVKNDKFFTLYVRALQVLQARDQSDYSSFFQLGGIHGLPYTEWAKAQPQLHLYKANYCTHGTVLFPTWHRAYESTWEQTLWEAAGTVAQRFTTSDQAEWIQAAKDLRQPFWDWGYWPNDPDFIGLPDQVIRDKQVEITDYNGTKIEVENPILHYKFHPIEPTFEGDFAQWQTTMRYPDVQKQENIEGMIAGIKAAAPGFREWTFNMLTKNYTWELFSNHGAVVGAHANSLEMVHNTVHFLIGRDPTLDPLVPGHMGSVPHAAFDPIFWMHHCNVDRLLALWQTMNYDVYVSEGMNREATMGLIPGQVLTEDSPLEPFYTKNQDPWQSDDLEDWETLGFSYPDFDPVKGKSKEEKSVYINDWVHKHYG

tyrosinase [2] = target: T1, tyrosinase; experiment: Slow-binding (time-dependent) inhibition kinetics; assay type: biochemical; parameters: purchased Sigma-Aldrich T3824; settings: for Time dependence of interaction with tyrosinase: time-course enzyme assay
Method: These curves were calculated by the following Equation (1):(1) [P]=vst+vi−vs/kobs[1−exp(−kobst)] where [P] is the concentration of product from the catalytic reaction, and the first-order rate constant (kobs) is the slow-binding constant corresponding to vi and vs.
The plot of kobs versus [inhibitor, I] is represented in Figure 3B.
First, the initial enzyme–ligand complex (E·I) forms rapidly, and then the isomerized enzyme–ligand complex (E*·I) forms slowly. Using Equation (3), k3 , k4 , and Kiapp kinetic parameters were calculated as 0.0041 S^−1, 0.0004 S^−1, and 35.8 µM, respectively (Table 2).
Target sequence in this assay (C7FF04 1-392 limits assumed): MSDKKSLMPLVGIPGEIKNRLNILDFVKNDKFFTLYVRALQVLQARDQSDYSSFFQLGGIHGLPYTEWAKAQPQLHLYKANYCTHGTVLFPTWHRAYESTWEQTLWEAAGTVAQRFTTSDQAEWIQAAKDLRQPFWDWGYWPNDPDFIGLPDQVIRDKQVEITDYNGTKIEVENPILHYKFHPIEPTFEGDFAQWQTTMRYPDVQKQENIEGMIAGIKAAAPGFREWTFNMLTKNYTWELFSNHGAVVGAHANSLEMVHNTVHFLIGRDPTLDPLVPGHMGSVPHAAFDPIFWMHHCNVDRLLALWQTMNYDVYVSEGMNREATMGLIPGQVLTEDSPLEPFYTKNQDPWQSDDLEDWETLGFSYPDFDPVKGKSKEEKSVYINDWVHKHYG

tyrosinase [3] = target: T1, tyrosinase; assay type: biochemical; settings: preincubated with enzyme
Target sequence in this assay (C7FF04 2-392): as the sequence (C7FF04 2-392) above
Method: The amount of L-DOPA converted from L-tyrosine as substrate of this enzyme was quantified in the presence of each respective compound [7].
Briefly, tyrosinase (~45 U/mL, 130 µL) in 50 µM phosphate buffer (pH 6.8) was added to 96-well plates. Twenty microliters of each respective compound (1 mM) were dissolved in MeOH, and compounds 2 and 8 (diluted to 0.065 mM) were added. Finally, 50 µL 1.5 mM L-tyrosine were added as a substrate. After initiating the enzyme reaction at 37 °C, the products were measured using UV-Vis determination (wavelength, 475 nm) for 20 min. The inhibition ratio was calculated using the following Equation (3):Inhibitory activity (%) = [(Δcontrol − Δinhibitor)/Δcontrol] × 100(3)

tyrosinase [4] = target: T1, tyrosinase; parameters: method as in earlier work; settings: ref 8 (Chang et al.); cited from earlier work
Target sequence in this assay (C7FF04 2-392): as above

[5] = time-dependent inhibition, kobs versus [I]

| SMILES | Binding Mode (tyrosinase [1]) | Ki (tyrosinase [2]) [µM] | Time dependence of interaction with tyrosinase (tyrosinase [2]) | k5 (tyrosinase [2]; [5]) [S^−1] | k6 (tyrosinase [2]; [5]) [S^−1] | Increase of inhibitory activity by preincubation compared with IC50 in the absence of preincubation (tyrosinase [3]) [fold] | Binding Mode (tyrosinase [4]) |
| --- | --- | --- | --- | --- | --- | --- | --- |
| O=c1c2c(O)cc(O)cc2oc2oc3cc(O)ccc3c12 [compound 2, lupinalbin A] | Competitive | 35.8 | time-dependent manner | 0.0041 | 0.0004 | 3 | – |
| O=c1c(-c2ccc(O)cc2O)coc2cc(O[C@@H]3O[C@H](CO[C@@H]4O[C@H](CO)[C@@H](O)[C@H](O)[C@H]4O)[C@@H](O)[C@H](O)[C@H]3O)cc(O)c12 [compound 8, 2′-hydroxygenistein-7-O-gentibioside] | Competitive | – | did not exhibit this pattern | – | – | – | – |
| O=c1c(-c2ccc(O)cc2)coc2cc(O)c(O)cc12 [6,7,4′-trihydroxyisolflavone] | – | – | – | – | – | – | competitive inhibitor |

— paper PMC6017567, “Chemical Constituents from Apios americana and Their Inhibitory Activity on Tyrosinase” (Molecules : A Journal of Synthetic Chemistry and Natural …, 2018)
